The values that follow come from PubChem BioAssay (NCI).

Several values for one entry are separate records, joined by “and”; a condition that tells them apart may be missing. Equal values may be shown once.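 Tested at 5 concentrations; 48 h exposure; 96-well plates; endpoints linearly interpolated, else capped at highest concentration. GI50 = concentration required for 50% inhibition of growth. TGI denotes the concentration required for complete inhibition of growth.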 Some results are limits rather than exact numbers.

Some test systems named below: 786-0 renal; CAKI-1 renal; SK-OV-3 ovarian; RPMI-8226 leukemia; LXFL 529 NSCLC; OVCAR-5 ovarian; RXF 393 renal; BT-549 breast.
Holding throughout (assay): inhibition of tumour cell growth, NCI panel, 48 h

Regarding `CC(=O)[CH-]C(=O)c1ccccc1.CC(=O)[CH-]C(=O)c1ccccc1.CCOCC[O-].CCOCC[O-].[Ti+4]`, the GI50 was 21.2 µM in the test with 786-0 renal; 19.2 µM in the test on CAKI-1 renal; 25.2 µM in the test on SK-OV-3 ovarian; 18 µM in the test on RPMI-8226 leukemia; 12.2 µM in the test on LXFL 529 NSCLC; 26.8 µM in the test on OVCAR-5 ovarian. Further, the TGI with 786-0 renal was 74.2 µM; in the test with CAKI-1 renal, 57.8 µM; in the test on SK-OV-3 ovarian, 74.9 µM; in the test on RPMI-8226 leukemia, 58.7 µM; with LXFL 529 NSCLC, 29.1 µM; in the test on OVCAR-5 ovarian, 60.7 µM.

On to `CNC(=O)Cc1nc(-c2cccc(NS(=O)(=O)c3c(F)cccc3F)c2F)c(-c2ccnc(Nc3ccccc3)n2)s1`, for which the GI50 in the test with 786-0 renal was 10.1 µM; with CAKI-1 renal it was 0.385 µM; with SK-OV-3 ovarian it was 0.558 µM; in the test with RPMI-8226 leukemia, 14.3 µM; in the test with RXF 393 renal it was 0.181 µM; with BT-549 breast it was > 35.8 µM. Besides, in the test on OVCAR-5 ovarian, the GI50 is 2.85 µM. Also, the TGI was > 50 µM in the test on 786-0 renal; > 50 µM in the test with CAKI-1 renal; 27.9 µM in the test with SK-OV-3 ovarian; > 47.9 µM in the test with RPMI-8226 leukemia; 2.84 µM in the test with RXF 393 renal; > 50 µM in the test with BT-549 breast. Moreover, the TGI with OVCAR-5 ovarian was > 50 µM.

For the compound `Cc1ccc(C)c(C2NC(=O)c3ccccc3N2)c1` (stereo not given), the TGI is > 64 µM in the test on 786-0 renal; 35.3 µM with CAKI-1 renal; > 75.1 µM in the test with SK-OV-3 ovarian; 16.4 µM with RPMI-8226 leukemia; 14.3 µM in the test with RXF 393 renal; > 71.6 µM in the test with BT-549 breast. In the test on OVCAR-5 ovarian, the TGI is > 69.7 µM.

Turning to `Cc1cn2c(/C=N/N=C(N)N)c(-c3cccs3)nc2s1`, the GI50 in the test on 786-0 renal is 2.42 µM; in the test with CAKI-1 renal, 13.7 µM; with SK-OV-3 ovarian, 17.5 µM; in the test with RPMI-8226 leukemia, 1.48 µM; in the test with RXF 393 renal, 10.2 µM; in the test with BT-549 breast it was 8.07 µM. Moreover, the GI50 in the test with OVCAR-5 ovarian was 2.37 µM. For the same compound, the TGI in the test on 786-0 renal worked out at 6.06 µM; in the test with CAKI-1 renal, 27.5 µM; in the test on SK-OV-3 ovarian it was 37.6 µM; in the test on RPMI-8226 leukemia, 3.5 µM; in the test with RXF 393 renal, 46.2 µM; in the test on BT-549 breast it was 22.8 µM. Moreover, in the test with OVCAR-5 ovarian, the TGI is 7.37 µM.

As to `COC1=CC(=O)C2C(C1=O)C(c1ccccc1)[C@H]2C` (stereo not given in full), the TGI in the test on 786-0 renal, in the test on SK-OV-3 ovarian, with RPMI-8226 leukemia, in the test on RXF 393 renal, in the test with LXFL 529 NSCLC and with OVCAR-5 ovarian was > 100 µM each time.

Take `Cc1cc(C)c(NC(=S)NC(=O)c2ccccc2)cc1C`: the TGI with 786-0 renal, in the test on CAKI-1 renal, in the test on SK-OV-3 ovarian, in the test on RPMI-8226 leukemia, in the test with RXF 393 renal and in the test on BT-549 breast was > 100 µM throughout. The TGI in the test on OVCAR-5 ovarian was > 100 µM.

Take `N#CC1=C(N)NC(N2CCOCC2)=NC12Nc1ccccc1N2`: the GI50 in the test on 786-0 renal was 13 µM; in the test with CAKI-1 renal it was 10.8 µM; in the test on SK-OV-3 ovarian, 58.1 µM; in the test on RPMI-8226 leukemia it was 24.2 µM; in the test with RXF 393 renal, 14.2 µM; in the test on BT-549 breast, 32.6 µM. Moreover, the GI50 in the test on OVCAR-5 ovarian was 42.7 µM. Further, the TGI in the test with 786-0 renal was 40 µM; with CAKI-1 renal, 37.8 µM; in the test on SK-OV-3 ovarian, > 100 µM; in the test on RPMI-8226 leukemia it was > 100 µM; in the test with RXF 393 renal it was 40.7 µM; in the test with BT-549 breast, > 100 µM. In addition, the TGI with OVCAR-5 ovarian is > 100 µM.

Turning to `CC(C)(C)[Si](C)(C)OC1[C@@H](O[Si](C)(C)C(C)(C)C)[C@@H](CNC(=O)NC(=O)CCl)O[C@H]1n1cnc2c(NC(=O)Nc3ccccc3)ncnc21` (stereo not given in full), the GI50 was 0.31 µM in the test with 786-0 renal; 0.989 µM in the test on CAKI-1 renal; 0.799 µM in the test on SK-OV-3 ovarian; 0.167 µM in the test on RPMI-8226 leukemia; 0.614 µM in the test on RXF 393 renal; 0.962 µM in the test on BT-549 breast. The GI50 with OVCAR-5 ovarian was 0.911 µM. The TGI was 0.633 µM in the test on 786-0 renal; 2.82 µM with CAKI-1 renal; 1.5 µM with SK-OV-3 ovarian; 0.682 µM with RPMI-8226 leukemia; 1.27 µM in the test on RXF 393 renal; 1.79 µM with BT-549 breast. This compound registered a TGI in the test with OVCAR-5 ovarian of 2.08 µM.

Take `CCn1c(-c2cc3ccccc3cc2O)nn(C(=O)c2c(Cl)cccc2Cl)c1=S`: the GI50 with 786-0 renal is 10.8 µM; with CAKI-1 renal it was 21.4 µM; in the test on SK-OV-3 ovarian, 15.4 µM; in the test on RPMI-8226 leukemia, 13.3 µM; in the test on RXF 393 renal, 14.5 µM; in the test with BT-549 breast, 15.6 µM. Also, the GI50 in the test on OVCAR-5 ovarian is > 50 µM. Moreover, the TGI in the test with 786-0 renal was 27.4 µM; in the test with CAKI-1 renal it was > 50 µM; in the test with SK-OV-3 ovarian, 40 µM; in the test with RPMI-8226 leukemia, 46.1 µM; with RXF 393 renal, > 50 µM; in the test on BT-549 breast it was 36.7 µM. Further, the TGI with OVCAR-5 ovarian was > 50 µM.

Turning to `Cc1sc2c(c1C)C(c1ccc(Cl)cc1)=N[C@@H](CC(=O)OC(C)(C)C)c1nnc(C)n1-2`, the GI50 in the test with 786-0 renal was 0.605 µM and 0.841 µM; in the test with CAKI-1 renal, 0.0513 µM and 0.0532 µM; with SK-OV-3 ovarian, 0.756 µM and 0.326 µM; in the test on RPMI-8226 leukemia, 0.142 µM and 0.0397 µM; with RXF 393 renal, 1.95 µM and 0.737 µM; with BT-549 breast it was 1.15 µM and 3.1 µM. The GI50 in the test on OVCAR-5 ovarian was 11.9 µM and 10.4 µM. Moreover, the TGI in the test with 786-0 renal was 19.9 µM and 18.9 µM; in the test on CAKI-1 renal, 18.2 µM and 15.1 µM; in the test with SK-OV-3 ovarian, 19.4 µM and 15.6 µM; in the test with RPMI-8226 leukemia, 2.92 µM and 0.477 µM; in the test with RXF 393 renal it was 19 µM and 9.28 µM; in the test with BT-549 breast, 20.8 µM and 20 µM. Also, the TGI in the test with OVCAR-5 ovarian was 25 µM and 22.7 µM.

With `CN1C(=O)N[C@H]2[C@@H]3NC(=O)c4ccc(Br)n4[C@@H]3C[C@]21O`, the GI50 in the test on 786-0 renal was 0.223 µM; in the test with CAKI-1 renal, 2.4 µM; in the test with SK-OV-3 ovarian, 1.37 µM; in the test on RPMI-8226 leukemia it was 0.0831 µM; in the test with RXF 393 renal, 0.0565 µM; in the test on BT-549 breast, 0.0739 µM. In the test with OVCAR-5 ovarian, the GI50 is 1.03 µM. Further, the TGI in the test with 786-0 renal worked out at 1.82 µM; in the test with CAKI-1 renal, 13.1 µM; in the test with SK-OV-3 ovarian it was 5.5 µM; in the test with RPMI-8226 leukemia it was 0.417 µM; with RXF 393 renal it was 0.486 µM; with BT-549 breast it was 0.405 µM. For the same compound, the TGI with OVCAR-5 ovarian stood at 6.3 µM.
